# Experimental data published in patent publication US11214803B2, “Modulators of YAP1 expression” (Ionis Pharmaceuticals, Inc., priority 2019, dated 2022).
# Strand notation (5' to 3'): a small letter for the sugar, then the base; units joined by * are phosphorothioate-linked, units joined directly phosphodiester-linked; [ ] holds rarer units or linkages, { } end groups; capitals alone tell only the bases. k = constrained ethyl (cEt); [5mC] = 5-methylcytosine; d = 2'-deoxy (DNA)
# Tested on: Yap1 mRNA
# Experiment: Antisense inhibition of human Yap1 in A-431 cells by cEt gapmers, single dose (Example 3, RTS36584)
# Format: cell-based
# Settings: Table 8; A-431 cells, 5,000 cells per well, free uptake, 2,000 nM, approximately 48 hours; RTS36584; normalized to RIBOGREEN; Yap1 mRNA relative to untreated control cells
# In short: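 A-431 cells (5,000/well) took up the 3-10-3 cEt gapmers by free uptake at 2,000 nM for about 48 h. Yap1 mRNA was measured by RT-qPCR with primer probe set RTS36584, normalized to RiboGreen total RNA, and given as % of untreated control.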
row,Substance,YAP1 (% UTC)
1,958377 (antisense kG*k[5mC]*kT*dG*dG*dG*dA*dT*dT*dG*dA*dT*dA*kT*kT*k[5mC]) [Compound 958377],9 % UTC
2,958385 (antisense kG*k[5mC]*kG*d[5mC]*dG*d[5mC]*dG*d[5mC]*dA*dT*dT*dG*dT*kG*k[5mC]*kA) [Compound 958385],115 % UTC

# Same assay, conditions: Table 9; A-431 cells, 5,000 cells per well, free uptake, 2,000 nM, approximately 48 hours; RTS36584; normalized to RIBOGREEN; Yap1 mRNA relative to untreated control cells
row,Substance,YAP1 (% UTC)
1,958786 (antisense kT*kA*kT*dG*dT*d[5mC]*d[5mC]*dT*dA*d[5mC]*dT*dT*dT*k[5mC]*k[5mC]*k[5mC]) [Compound 958786],10 % UTC
2,958536 (kA*kG*kG*dG*dT*d[5mC]*dA*dA*dT*dT*dT*dT*d[5mC]*kA*kG*k[5mC]; antisense) [Compound 958536],3 % UTC

# Same assay, conditions: Table 10; A-431 cells, 5,000 cells per well, free uptake, 2,000 nM oligonucleotide, approx. 48 hours; primer probe set RTS36584; Yap1 mRNA normalized to RIBOGREEN, percent of untreated control
row,Substance,YAP1 (% UTC)
1,958802 (antisense kA*kG*kA*dT*dA*dA*dT*d[5mC]*dA*dT*d[5mC]*d[5mC]*dT*k[5mC]*kA*kA) [Compound 958802],25 % UTC
2,958577 (kT*k[5mC]*kT*dG*dT*dG*dG*d[5mC]*dT*dA*d[5mC]*dT*dG*kG*k[5mC]*kA; antisense) [Compound 958577],4 % UTC

# Same assay, conditions: Table 11; A-431 cells, 5,000 cells per well, free uptake, 2,000 nM oligonucleotide, approx. 48 hours; primer probe set RTS36584; Yap1 mRNA normalized to RIBOGREEN, percent of untreated control
row,Substance,YAP1 (% UTC)
1,958693 (antisense kG*kT*kG*dG*dT*dG*dT*d[5mC]*dT*d[5mC]*dA*d[5mC]*dA*kG*kG*k[5mC]) [Compound 958693],99 % UTC
2,958483 (antisense kG*kA*kG*dG*dA*dT*dT*dA*dA*dA*dG*dT*dA*kT*k[5mC]*kT) [Compound 958483],17 % UTC
3,958498 (kG*kA*kG*dT*dA*dT*dG*dT*dG*dG*d[5mC]*dA*dA*kT*kA*kA; antisense) [Compound 958498],1 % UTC
4,958533 (kG*k[5mC]*kA*dT*dA*dG*dA*dA*dG*dT*dA*dG*dG*kA*kG*k[5mC]; antisense) [Compound 958533],3 % UTC
5,958673 (kA*kG*kA*dA*d[5mC]*dT*dT*dA*dG*dT*dT*d[5mC]*d[5mC]*k[5mC]*kT*kT; antisense) [Compound 958673],30 % UTC

# Same assay, conditions: Table 12; A-431 cells, 5,000 cells per well, free uptake, 2,000 nM modified oligonucleotide, approx. 48 hours; RTS36584; normalized to RIBOGREEN; Yap1 mRNA relative to untreated control cells
row,Substance,YAP1 (% UTC)
1,958494 (kT*kA*kG*d[5mC]*dA*d[5mC]*dT*dA*dG*dG*dA*dG*dG*kA*kA*kA; antisense) [Compound 958494],28 % UTC
2,958734 (antisense kA*k[5mC]*kA*d[5mC]*dA*dT*dA*dG*dA*dG*d[5mC]*dT*dA*kA*kG*kG) [Compound 958734],7 % UTC
3,958459 (antisense k[5mC]*kT*kG*dA*dA*dG*d[5mC]*d[5mC]*dG*dA*dG*dT*dT*k[5mC]*kA*kT) [Compound 958459],28 % UTC
4,958739 (antisense kA*kG*k[5mC]*dA*dA*dT*dA*dG*dA*dG*dT*dA*dA*k[5mC]*k[5mC]*kA) [Compound 958739],4 % UTC
5,958474 (antisense kG*kT*kG*dT*d[5mC]*dT*d[5mC]*d[5mC]*dT*dT*dA*dG*dA*kT*k[5mC]*k[5mC]) [Compound 958474],3 % UTC
6,958809 (kT*k[5mC]*kT*dT*dA*dA*d[5mC]*dA*d[5mC]*d[5mC]*dT*dG*dA*kG*k[5mC]*kT; antisense) [Compound 958809],66 % UTC
7,958524 (kG*k[5mC]*kA*d[5mC]*dA*dT*dT*dA*dT*dG*dA*dA*d[5mC]*k[5mC]*kT*kA; antisense) [Compound 958524],13 % UTC

# Same assay, conditions: Table 13; A-431 cells, 5,000 cells per well, free uptake, 2,000 nM modified oligonucleotide, approx. 48 hours; RTS36584; normalized to RIBOGREEN; Yap1 mRNA relative to untreated control cells
row,Substance,YAP1 (% UTC)
1,958540 (kA*kT*kT*d[5mC]*dT*dA*dT*d[5mC]*d[5mC]*dA*dG*dG*dG*kT*k[5mC]*kA; antisense) [Compound 958540],8 % UTC
2,958455 (antisense kA*kG*kA*dG*dG*dA*dA*dT*dG*dA*dG*d[5mC]*dT*k[5mC]*kG*kA) [Compound 958455],43 % UTC
3,958780 (antisense kT*k[5mC]*kA*dA*d[5mC]*dT*dA*d[5mC]*dT*dT*dT*dT*d[5mC]*kA*kG*k[5mC]) [Compound 958780],24 % UTC
4,958805 (k[5mC]*kA*kA*dG*dA*dT*dA*dA*dT*d[5mC]*dA*dT*d[5mC]*k[5mC]*kT*k[5mC]; antisense) [Compound 958805],6 % UTC

# Same assay, conditions: Table 26; Yap1 mRNA by 3-10-3 cEt gapmers targeting SEQ ID NO.: 1, and 2; percent of untreated control
row,Substance,YAP1 (% UTC)
1,1074124 (kG*kG*k[5mC]*dT*dG*d[5mC]*dG*dA*dG*dG*d[5mC]*dA*d[5mC]*kT*k[5mC]*kG; antisense) [compound 1074124],94 % UTC
2,1075404 (antisense kA*kT*kA*dT*dA*dA*d[5mC]*d[5mC]*dT*dG*dA*dA*d[5mC]*kT*kA*kA) [compound 1075404],102 % UTC
3,1075852 (kG*kA*kT*dA*dA*dG*d[5mC]*d[5mC]*dG*dA*dA*dT*dA*kT*kG*kG; antisense) [compound 1075852],58 % UTC

# Same assay, conditions: Table 27; Yap1 mRNA by 3-10-3 cEt gapmers targeting SEQ ID NO.: 1, and 2; percent of untreated control
row,Substance,YAP1 (% UTC)
1,1076493 (kT*kG*kA*d[5mC]*dA*dA*dT*dA*dA*dG*dG*dG*dA*k[5mC]*kA*kA; antisense) [compound 1076493],34 % UTC
2,1075085 (antisense kT*kG*k[5mC]*dG*dG*dA*dA*dA*d[5mC]*dA*dA*dG*dT*kG*kT*kA) [compound 1075085],11 % UTC

# Same assay, conditions: Table 28; Yap1 mRNA as percent of untreated control; 3-10-3 cEt gapmers targeting SEQ ID NO.: 1, and 2
row,Substance,YAP1 (% UTC)
1,1076046 (k[5mC]*kT*kT*dA*dA*dA*dT*dG*dG*dT*dG*d[5mC]*dA*kA*kT*kA; antisense) [compound 1076046],28 % UTC
2,1075214 (kA*kA*k[5mC]*dA*dA*dT*dA*dA*dA*dG*dG*dG*dT*k[5mC]*k[5mC]*kT; antisense) [compound 1075214],45 % UTC
3,1074670 (antisense kA*kA*kG*dT*dA*dG*d[5mC]*dT*dT*dT*dG*dA*dT*k[5mC]*kT*kT) [compound 1074670],49 % UTC
4,1075726 (kA*kG*kT*dT*dA*dT*d[5mC]*d[5mC]*dT*dA*dT*d[5mC]*dT*kG*kT*k[5mC]; antisense) [compound 1075726],14 % UTC
5,1076334 (antisense kA*k[5mC]*k[5mC]*dT*dA*dT*dA*dA*dG*dG*dA*dA*dT*kG*kG*k[5mC]) [compound 1076334],108 % UTC

# Same assay, conditions: Table 29; Yap1 mRNA as percent of untreated control; 3-10-3 cEt gapmers targeting SEQ ID NO.: 1, and 2
row,Substance,YAP1 (% UTC)
1,1075727 (kT*kT*kA*dT*d[5mC]*dG*dG*dA*dG*dG*d[5mC]*dT*dT*k[5mC]*kG*k[5mC]; antisense) [compound 1075727],31 % UTC
2,1075215 (kA*kA*kA*d[5mC]*dA*dA*dT*dA*dA*dA*dG*dG*dG*kT*k[5mC]*k[5mC]; antisense) [compound 1075215],44 % UTC
3,1075567 (kG*kA*kT*dA*dT*dA*dT*dA*dA*d[5mC]*dA*dG*dG*k[5mC]*k[5mC]*kA; antisense) [compound 1075567],65 % UTC

# Same assay, conditions: Table 34; Yap1 mRNA as percent of untreated control; 3-10-3 cEt gapmers targeting SEQ ID NO: 1 and 2; single dose
row,Substance,YAP1 (% UTC)
1,1076500 (k[5mC]*kA*kA*dT*dT*dA*dA*dG*dA*dT*d[5mC]*dA*dA*k[5mC]*kA*kT; antisense) [compound 1076500],99 % UTC
2,1076244 (k[5mC]*kA*kA*dT*dT*dT*dG*dG*dG*dA*dT*dA*dT*kT*k[5mC]*kG; antisense) [compound 1076244],14 % UTC
